How the values were obtained:
[1] = test system: orthotopic PDA tumors from KPC mice; settings: for progression of orthotopic PDA (tumor weight): wild-type mice, oral antifungal vs vehicle, killed three weeks after tumor implantation (FIG. 3B, 7A)
[2] = test system: orthotopic tumors from KPC mice; test: Orthotopic KPC tumors in MBL-null mice; format: in vivo, mouse; settings: amphotericin B vs vehicle, three weeks (FIG. 8B)
Text: (§1) Littermates were used as controls.

[3] = test system: oncogenic progression in KC mice (p48cre;LSL-KrasG12D); test: KC mouse model of slowly progressive PDA, mycobiome ablation; format: in vivo; settings: oral amphotericin B vs vehicle, killed at three months old (FIG. 3A)
Text: as §1

[4] = test system: orthotopic tumors from KPC mice; test: Intratumoral injection of recombinant C3a into orthotopic KPC tumors; format: in vivo, mouse; settings: single intratumoral injection 40 μg/kg on day 14, tumors collected day 21 (FIG. 4D)
Text: as §1

KPC tumor cells = test: XTT proliferation assay of KPC tumor cells; format: cell-based; settings: recombinant mouse C3a 5 nM vs vehicle, serial time points (FIG. 8F)
Text: as §1

| Compound | effect on gemcitabine chemotherapy (tumor weight) ([1]; wild-type mice with orthotopic PDA tumors, amphotericin B combined with gemcitabine, three weeks of treatment (FIG. 3C)) | progression of orthotopic PDA (tumor weight) [1] | protection against tumor growth in MBL-null mice (tumor weight) [2] | oncogenic progression (pancreatic weight, acinar area, ADM/PanIN lesions, fibrosis) [3] | growth of KPC tumors in vivo (change in tumor volume) [4] | proliferation of KPC cells in vitro (KPC tumor cells) |
| --- | --- | --- | --- | --- | --- | --- |
| C[C@@H]1[C@H](O)[C@@H](C)/C=C/C=C/C=C/C=C/C=C/C=C/C=C/[C@H](O[C@@H]2O[C@H](C)[C@@H](O)[C@H](N)[C@@H]2O)C[C@@H]2O[C@](O)(C[C@@H](O)C[C@@H](O)[C@H](O)CC[C@@H](O)C[C@@H](O)CC(=O)O[C@H]1C)C[C@H](O)[C@H]2C(=O)O [amphotericin B] | potentiated the effect of chemotherapy based on gemcitabine | protective against progression | did not provide protection against tumor growth | protected the mice against oncogenic progression | – | – |
| OC(Cn1cncn1)(Cn1cncn1)c1ccc(F)cc1F [fluconazole] | – | protective against progression | – | – | – | – |
| recombinant C3a: recombinant mouse complement fragment C3a (R&D) | – | – | – | – | accelerated | accelerated the proliferation of KPC cells |

— patent publication US12685743B2, “Methods and compositions for treating and diagnosing pancreatic cancers” (New York University, priority 2019, dated 2026)
